This note sets out measurements from US10077261B2, “Imidazolin-5-one derivative useful as FASN inhibitors for the treatment of cancer” (Janssen Pharmaceutica NV, priority 2012, dated 2018).

Test [1] relates to A2780 ovarian cells. Put plainly: A2780 ovarian cell proliferation assay in lipid reduced medium, without palmitate (MTT). The format is cell-based. To be noted: Homo sapiens, A2780, 96 h; read-out: pIC50 A2780 Ovarian Cell, Without Palmitate (converted).
For test [2], the system named is A2780 ovarian cells. Put plainly: A2780 ovarian cell proliferation assay in lipid reduced medium, with palmitate (MTT). The format is cell-based. To be noted: Homo sapiens, A2780, 96 h; read-out: pIC50 A2780 Ovarian Cell, With Palmitate (converted). The procedure, abridged:
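In this palmitate-supplemented format, compound dilutions (30 μM down to 0.01 μM) are added to cells in lipid-reduced serum with 25 μM palmitate, 0.2% fatty-acid-free BSA and 0.25% ethanol. After four days (96 h) MTT absorbance at 544 nm is recorded and fitted by minimum sum of squares.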

Test [3] addresses Fatty Acid Synthase Keto-reductase Domain (FASN KR) (Homo sapiens, UniProt P49327). Put plainly: Fatty Acid Synthase keto-reductase domain (FASN KR) inhibition, NADPH oxidation at 340 nm.
Experimental: After 20 minutes incubation at room temperature the plate was measured again (T2).
The decrease in absorbance was calculated as (Absorbance before incubation T1)−(Absorbance following incubation T2).
A plot of Controlmin versus test compound concentration was fitted to a 4-parameter logistic curve using a non-linear least squares regression method.
Test [4] deals with LNCaP-Vancouver prostate cells. Put plainly: In vitro LNCaP Vancouver prostate cell proliferation assay in lipid reduced medium. The format is cell-based. To be noted: read-out: pIC50 LNCaP_Vancouver prostate cell (converted).
Test [5] has as its system PC-3M-Luc-C6 prostate cells. Put plainly: In vitro PC-3M-Luc-C6 prostate cell proliferation assay in lipid reduced medium. The format is cell-based. Particulars: 96 h, read-out: pIC50 PC-3M-Luc-C6 prostate cell (converted).
Test [6] has as its target T1, hFASN enzyme (full length) (Homo sapiens, UniProt P49327).
T1 construct: 10 μL hFASN enzyme (full length, 300 ng, purified in house); made in house
Put plainly: Fatty Acid Synthase (FASN) inhibition scintillation proximity assay. The format is biochemical. Particulars: for inhibition at 10 µM: read-out: Human FASN % inhibition @ 10 μM, 10 μM test compound; for IC50: read-out: Human FASN pIC50 (converted). An outline of the steps:
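Scintillation proximity format: in-house full-length enzyme, 300 ng per well, pH 7.5 phosphate/DTT buffer, ³H-acetyl-CoA and malonyl-CoA. Emission counted on LEADseeker at 610 nm at least 24 h after stopping.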

T1 sequence (P49327 whole entry): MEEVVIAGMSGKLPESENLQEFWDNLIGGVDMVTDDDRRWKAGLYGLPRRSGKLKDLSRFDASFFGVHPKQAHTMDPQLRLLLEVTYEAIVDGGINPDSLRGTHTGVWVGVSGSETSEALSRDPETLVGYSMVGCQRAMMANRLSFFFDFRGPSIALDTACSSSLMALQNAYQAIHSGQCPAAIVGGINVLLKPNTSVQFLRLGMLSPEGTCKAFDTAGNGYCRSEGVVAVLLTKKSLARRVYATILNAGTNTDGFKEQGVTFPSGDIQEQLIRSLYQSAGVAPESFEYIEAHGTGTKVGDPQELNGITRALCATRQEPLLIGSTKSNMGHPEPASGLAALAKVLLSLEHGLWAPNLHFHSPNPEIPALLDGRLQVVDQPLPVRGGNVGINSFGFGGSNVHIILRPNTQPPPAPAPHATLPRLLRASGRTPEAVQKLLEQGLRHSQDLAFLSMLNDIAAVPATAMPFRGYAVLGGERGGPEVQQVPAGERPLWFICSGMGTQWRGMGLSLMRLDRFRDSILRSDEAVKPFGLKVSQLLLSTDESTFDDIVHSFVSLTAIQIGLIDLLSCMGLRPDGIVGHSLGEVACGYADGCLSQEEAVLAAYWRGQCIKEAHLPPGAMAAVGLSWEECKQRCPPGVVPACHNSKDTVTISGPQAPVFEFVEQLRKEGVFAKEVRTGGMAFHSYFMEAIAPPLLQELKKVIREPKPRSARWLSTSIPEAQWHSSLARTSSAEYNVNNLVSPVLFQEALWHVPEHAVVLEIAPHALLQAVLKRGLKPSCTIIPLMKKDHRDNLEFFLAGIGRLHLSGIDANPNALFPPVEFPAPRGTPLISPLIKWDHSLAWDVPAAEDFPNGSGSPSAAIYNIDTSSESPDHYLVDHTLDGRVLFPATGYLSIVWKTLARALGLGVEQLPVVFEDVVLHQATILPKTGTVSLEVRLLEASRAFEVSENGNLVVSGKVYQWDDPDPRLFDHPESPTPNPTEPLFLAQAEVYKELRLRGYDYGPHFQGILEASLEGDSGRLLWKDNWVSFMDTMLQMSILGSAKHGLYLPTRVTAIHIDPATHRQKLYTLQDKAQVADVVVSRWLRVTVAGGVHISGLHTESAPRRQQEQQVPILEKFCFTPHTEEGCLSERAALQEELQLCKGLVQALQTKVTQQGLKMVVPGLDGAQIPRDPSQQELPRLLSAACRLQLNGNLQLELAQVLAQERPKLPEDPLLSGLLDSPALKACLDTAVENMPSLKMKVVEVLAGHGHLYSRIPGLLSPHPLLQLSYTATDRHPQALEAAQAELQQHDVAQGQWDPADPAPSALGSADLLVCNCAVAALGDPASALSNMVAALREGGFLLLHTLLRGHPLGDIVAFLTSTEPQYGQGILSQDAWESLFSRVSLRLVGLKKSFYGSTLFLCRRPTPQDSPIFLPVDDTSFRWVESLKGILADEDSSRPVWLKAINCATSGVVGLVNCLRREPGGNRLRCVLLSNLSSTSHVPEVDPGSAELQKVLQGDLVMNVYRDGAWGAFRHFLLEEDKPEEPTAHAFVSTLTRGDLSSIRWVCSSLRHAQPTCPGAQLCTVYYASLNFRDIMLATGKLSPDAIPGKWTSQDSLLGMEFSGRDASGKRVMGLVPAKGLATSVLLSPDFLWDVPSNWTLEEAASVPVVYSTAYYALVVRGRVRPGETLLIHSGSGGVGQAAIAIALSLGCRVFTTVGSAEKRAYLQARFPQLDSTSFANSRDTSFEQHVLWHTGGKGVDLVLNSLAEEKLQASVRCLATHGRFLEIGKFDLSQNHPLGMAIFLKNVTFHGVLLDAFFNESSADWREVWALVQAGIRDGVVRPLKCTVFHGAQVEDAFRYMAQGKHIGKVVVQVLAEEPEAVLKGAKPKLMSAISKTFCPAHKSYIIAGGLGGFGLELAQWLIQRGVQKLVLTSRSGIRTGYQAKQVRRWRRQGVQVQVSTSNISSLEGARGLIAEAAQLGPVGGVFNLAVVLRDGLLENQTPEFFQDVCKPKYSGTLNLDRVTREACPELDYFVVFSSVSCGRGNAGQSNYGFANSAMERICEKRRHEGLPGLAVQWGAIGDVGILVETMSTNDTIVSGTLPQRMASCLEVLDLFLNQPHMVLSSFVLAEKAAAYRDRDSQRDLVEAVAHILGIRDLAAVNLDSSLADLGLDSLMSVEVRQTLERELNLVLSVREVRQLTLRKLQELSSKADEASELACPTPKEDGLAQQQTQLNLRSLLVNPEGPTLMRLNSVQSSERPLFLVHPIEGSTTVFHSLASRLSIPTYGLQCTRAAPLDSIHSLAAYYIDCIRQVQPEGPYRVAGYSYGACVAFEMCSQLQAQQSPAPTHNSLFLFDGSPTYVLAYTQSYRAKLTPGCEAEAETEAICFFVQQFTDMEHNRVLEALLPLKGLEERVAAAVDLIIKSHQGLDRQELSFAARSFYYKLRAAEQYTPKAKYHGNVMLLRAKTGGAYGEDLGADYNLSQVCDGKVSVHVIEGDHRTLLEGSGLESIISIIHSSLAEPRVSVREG
Chain of Fatty Acid Synthase Keto-reductase Domain (FASN KR) (P49327 whole entry, the tested form may be a part): as the sequence (P49327 whole entry) above

Broadly, the inhibition is the relative decrease from the control value, in per cent. Regarding `Cc1cc(-c2ccc3c(cnn3C)c2)ccc1C1=NC2(CC2)C(=O)N1CC1CN(C(=O)C2CCCO2)C1` (stereo in doubt) [compound 206, (S)-5-(2-methyl-4-(1-methyl-1H-indazol-5-yl)phenyl)-6-((1-(tetrahydro-furan-2-carbonyl)azetidin-3-yl)methyl)-4,6-diazaspiro[2.4]hept-4-en-7-one], the IC50 was about 0.0105 µM in the test on A2780 ovarian cells [1]; over 10 µM in the test with A2780 ovarian cells [2]; 0.0759 µM in test [3]; 0.1 µM in test [4]; 0.0191 µM in test [5]; 0.0372 µM in test [6]. In addition, the inhibition at 10 µM in test [6] was determined as 101%.
Turning to `O=C(C1CC1)N1CC(CN2C(=O)C3(CC3)N=C2c2ccc(-c3ccc4occc4c3)cc2)C1` [compound 49, 5-[4-(1-Benzofuran-5-yl)phenyl]-6-{[1-(cyclopropylcarbonyl)azetidin-3-yl]methyl}-4,6-diazaspiro[2.4]hept-4-en-7-one], the IC50 in the test with A2780 ovarian cells [1] was 0.331 µM; in the test on A2780 ovarian cells [2], over 10 µM; in test [3], 0.155 µM; in test [4], 0.912 µM; in test [5] it was 0.219 µM; in test [6] it was 0.0603 µM. Besides, in test [6], the inhibition at 10 µM worked out at 101%.
In the case of `Cn1cc(-c2ccc(-c3ccc(C4=NC5(CC5)C(=O)N4CC4CN(C(=O)C5CC5)C4)cc3)cc2)cn1` [compound 59, 6-{[1-(Cyclopropylcarbonyl)azetidin-3-yl]methyl}-5-[4′-(1-methyl-1H-pyrazol-4-yl)biphenyl-4-yl]-4,6-diazaspiro[2.4]hept-4-en-7-one], the IC50 is 0.0955 µM in the test with A2780 ovarian cells [1]; over 10 µM with A2780 ovarian cells [2]; 0.132 µM in test [3]; 0.263 µM in test [4]; 0.1 µM in test [5]; 0.0417 µM in test [6]. The inhibition at 10 µM in test [6] was 98.7%.
Turning to `Cn1cc(-c2ccc(-c3ccc(C4=NC5(CC5)C(=O)N4C[C@@H]4CCN(C(=O)C5CC5)C4)cc3)cc2)cn1` [compound 65, (R)-6-((1-(Cyclopropanecarbonyl)pyrrolidin-3-yl)methyl)-5-(4′-(methyl-1H-pyrazol-4-yl)-[1,1′-biphenyl]-4-yl)-4,6-diazaspiro[2.4]hept-4-en-7-one], the IC50 in the test on A2780 ovarian cells [1] is about 0.0132 µM; in the test with A2780 ovarian cells [2] it was over 10 µM; in test [4], 0.0661 µM; in test [5] it was about 0.0245 µM. Besides, in test [3] (NADPH oxidation, absorbance at 340 nm, ethyl acetoacetate substrate), the “FASN Keto-reductase Domain pIC50” value was 7.27. Besides, in test [6] (hFASN enzyme full length, scintillation proximity assay, "~" = standard error of pIC50 larger than 0.5), the “Human FASN pIC50” value turned out to be 7.55. In test [6], the inhibition at 10 µM came out at 101%.
Regarding `Cn1ncc2cc(-c3ccc(C4=NC5(CC5)C(=O)N4C[C@@H]4CCN(C(=O)C5(O)CC5)C4)cc3)ccc21` [compound 200], the IC50 was about 0.00389 µM in the test with A2780 ovarian cells [1]; over 10 µM in the test with A2780 ovarian cells [2]; 0.0347 µM in test [3]; about 0.0339 µM in test [4]; 0.00646 µM in test [5]; 0.0347 µM in test [6]. The inhibition at 10 µM in test [6] was determined as 102%.
Consider `Cn1ncc2cc(-c3ccc(C4=NC5(CC5)C(=O)N4C[C@@H]4CCN(C(=O)C5(C)CC5)C4)cc3)ccc21` [compound 201, (R)-5-(4-(1-methyl-1H-indazol-5-yl)phenyl)-6-((1-(1-methylcyclopropanecarbonyl)pyrrolidin-3-yl)methyl)-4,6-diazaspiro[2.4]hept-4-en-7-one], for which the IC50 in the test with A2780 ovarian cells [1] was about 0.00437 µM; in the test with A2780 ovarian cells [2] it was about 3.47 µM; in test [3], 0.0339 µM; in test [4], 0.0209 µM; in test [5], about 0.00661 µM; in test [6], 0.0437 µM. Also, in test [6], the inhibition at 10 µM stood at 100%.
Regarding `O=C(N1CC[C@@H](CN2C(=O)C3(CC3)N=C2c2ccc(-c3ccc(Cl)cc3F)cc2)C1)C1(O)CC1` [compound 202, (R)-5-(4′-chloro-2′-fluoro[1,1′-biphenyl]-4-yl)-6-((1-(1-hydroxycyclopropanecarbonyl)pyrrolidin-3-yl)methyl)-4,6-diazaspiro[2.4]hept-4-en-7-one], the IC50 in the test on A2780 ovarian cells [1] was 0.0589 µM; with A2780 ovarian cells [2], over 10 µM; in test [3] it was 0.0741 µM; in test [4] it was 0.55 µM; in test [5], about 0.0955 µM; in test [6] it was 0.0832 µM. Besides, the inhibition at 10 µM in test [6] is 101%.
With `COc1ccc2cc(-c3ccc(C4=NC5(CC5)C(=O)N4C[C@@H]4CCN(C(=O)C5(O)CC5)C4)cc3)ccc2c1` [compound 203, (R)-6-((1-(1-hydroxycyclopropanecarbonyl)pyrrolidin-3-yl)methyl)-5-(4-(6-methoxynaphthalen-2-yl)phenyl)-4,6-diazaspiro[2.4]hept-4-en-7-one], the IC50 with A2780 ovarian cells [1] was about 0.00457 µM; in the test with A2780 ovarian cells [2], over 10 µM; in test [3], 0.0468 µM; in test [4] it was 0.0214 µM; in test [5] it was 0.00562 µM; in test [6], 0.0575 µM. For the same compound, the inhibition at 10 µM in test [6] is 99%.
`Cc1cc(-c2ccc3c(cnn3C)c2)ccc1C1=NC2(CC2)C(=O)N1CC1CN(C(=O)C2CCCO2)C1` (stereo not drawn) [compound 205, 5-(2-methyl-4-(1-methyl-1H-indazol-5-yl)phenyl)-6-((1-(tetrahytdro-furan-2-carbonyl)azetidin-3-yl)methyl)-4,6-diazaspiro[2.4]hept-4-en-7-one]: the IC50 in the test with A2780 ovarian cells [1] was 0.0363 µM; in the test with A2780 ovarian cells [2] it was over 10 µM; in test [3] it was 0.115 µM; in test [4], 0.102 µM; in test [5], 0.0537 µM; in test [6], 0.0977 µM. The inhibition at 10 µM in test [6] was determined as 94%.
For the compound `COC(=O)N1CC2(C1)N=C(c1ccc(-c3ccc(-c4cnn(C)c4)cc3)cc1)N(C[C@@H]1CCN(C(=O)[C@H]3CCCO3)C1)C2=O` [compound 727, Methyl 6-[4′-(1-methyl-1H-pyrazol-4-yl)biphenyl-4-yl]-8-oxo-7-({(3R)-1-[(2R)-tetrahydro-furan-2-ylcarbonyl]pyrrolidin-3-yl}methyl)-2,5,7-triazaspiro[3.4]ect-5-ene-2-carboxylate], the IC50 in test [3] is 1.1 µM; in test [4] it was 2.4 µM; in test [5] it was 0.575 µM; in test [6], 0.204 µM. Besides, the inhibition at 10 µM in test [6] came to 98%.
Taken in the same sequence, the figures for `COC(=O)N1CC2(C1)N=C(c1ccc(-c3ccc4cccnc4c3)cc1)N(C[C@@H]1CCN(C(=O)C3CC3)C1)C2=O` [compound 728, Methyl 7-{[(3R)-1-(cyclopropylcarbonyl)pyrrolidin-3-yl]methyl}-8-oxo-6-(4-quinolin-7-ylphenyl)-2,5,7-triazaspiro[3.4]ect-5-ene-2-carboxylate] were 0.316 µM, 0.525 µM, 0.151 µM, 0.0646 µM and 100%.
Taken in the same sequence, the figures for `COC(=O)N1CC2(C1)N=C(c1ccc(-c3ccc4cccnc4c3)cc1)N(C[C@@H]1CCN(C(=O)[C@H]3CCCO3)C1)C2=O` [compound 730, Methyl 8-oxo-6-(4-quinolin-7-ylphenyl)-7-({(3R)-1-[(2R)-tetrahydro-furan-2-ylcarbonyl]pyrrolidin-3-yl}methyl)-2,5,7-triazaspiro[3.4]oct-5-ene-2-carboxylate] were 0.355 µM, about 0.407 µM, 0.0977 µM, 0.1 µM and 102%.
Taken in the same sequence, the figures for `COC(=O)N1CC2(C1)N=C(c1ccc(-c3ccc4occc4c3)cc1)N(C[C@@H]1CCN(C(=O)C3CC3)C1)C2=O` [compound 733, Methyl 6-[4-(1-benzofuran-5-yl)phenyl]-7-{[(3R)-1-(cycloprropylcarbonyl)pyrrolidin-3-yl]methyl}-8-oxo-2,5,7-triazaspiro[3.4]oct-5-ene-2-carboxylate] were 0.537 µM, 3.31 µM, 1.29 µM, 0.2 µM and 96%.
In the case of `COC(=O)N1CC2(C1)N=C(c1ccc(-c3ccc4occc4c3)cc1)N(C[C@@H]1CCN(C(=O)[C@H]3CCCO3)C1)C2=O` [compound 735, Methyl 6-[4-(1-benzofuran-5-yl)phenyl]-8-oxo-7-({(3R)-1-[(2T)-tetrahydro-furan-2-ylcarbonyl]pyrrolidin-3-yl}methyl)-2,5,7-triazaspiro[3.4]oct-5-ene-2-carboxylate], the IC50 in test [3] was 0.851 µM; in test [4], 3.8 µM; in test [5], about 0.912 µM; in test [6] it was 0.135 µM. For the same compound, in test [6], the inhibition at 10 µM stood at 97%.
Taken in the same sequence, the figures for `COC(=O)N1CC2(C1)N=C(c1ccc(-c3ccc4c(cnn4C)c3)cc1)N(C[C@@H]1CCN(C(=O)[C@H]3CCCO3)C1)C2=O` [compound 739, Methyl 6-[4-(1-methyl-1H-indazol-5-ylyl)phenyl]-8-oxo-7-({(3R)-1-[(2R)-tetrahydro-furan-2-ylcarbonyl]pyrrolidin-3-yl}methyl)-2,5,7-triazaspiro[3.4]oct-5-ene-2-carboxylate] were 0.513 µM, 3.8 µM, about 0.871 µM, 0.234 µM and 92%.
